{"source": "patent US10391096B2", "about": "“Method for treating thrombotic disorders using quercetin-containing compositions” (Quercegen Pharmaceuticals LLC, priority 2011, dated 2019)", "key": {"D-dimer": {"tested_on": "D-dimer", "experiment": "D-dimer level in blood of hypertensive patients treated with quercetin", "type": "in vivo, humans", "text": "As mentioned above, PDI plays a critical role in the initiation of the coagulation cascade. By blocking this critical enzyme activity, quercetin can prevent thrombus formation. The antithrombotic activity of quercetin can be evaluated in humans by measuring D-dimer levels in plasma samples from patients treated with quercetin. D-dimer, a small protein fragment present in the blood, is a fibrin degradation product. The level of D-dimer in the blood increases after a thrombotic event due to its release from blood clots via fibrinolysis. […] Hypertensive patients are prone to thrombotic events."}, "platelet aggregation": {"tested_on": "platelet aggregation", "conditions": "in vitro; cited from earlier work"}, "[1]": {"conditions": "hypertensive patients; cited from earlier work"}}}
{"smiles": "O=c1c(O)c(-c2ccc(O)c(O)c2)oc2cc(O)cc(O)c12", "note": "[Quercetin, quercetin]", "values": [{"measurement": "level of D-dimer in blood", "setting": "D-dimer", "result": "reduction in the level of D-dimer"}, {"measurement": "platelet aggregation", "setting": "platelet aggregation", "result": "inhibit platelet aggregation"}, {"measurement": "blood pressure", "setting": "[1]", "result": "reduce blood pressure"}]}
